These results are taken from patent US20210043958A1, “AQUEOUS COMPOSITION AS ELECTROLYTE COMPRISING IONIC LIQUIDS OR LITHIUM SALTS” (KIST EUROPE FORSCHUNGSGESELLSCHAFT MBH, priority 2018, published 2021).

As usually defined, the solubility is how much of the substance goes into solution per volume. Higher therefore signals much dissolved substance.

A short description of data set [1]: Solubility of organic compounds in supporting electrolyte at room temperature. Format: physicochemical. The note with it: for solubility: thermodynamic from solid. The source says: The last recorded amount was recognized as the solubility of the organics.
The nature of data set [2]: Cyclic voltammetry in three-electrode cell (glassy carbon / Pt foil / Ag wire). Type of data set: physicochemical. From the text: FIGS. 2a and 2b compare cyclic voltammetry curves of 0.1 M 2-methoxyhydroquinone in pure water and other aqueous ionic liquid, aqueous lithium salt (molality: 10 m), with and without the addition of 1 M HCl. Potential sweep rate: 50 mV s^−1. Working electrode: glassy carbon; Counter electrode: Pt foil; Reference electrode: Ag wire.
FIG. 5a depicts the chemical structure of 2-[(2,5-dihydroxyphenyl)sulfanyl]ethan-1-aminium chloride. FIGS. 5b and 5c show the cyclic voltammetry curves of 0.1 M 2-[(2,5-dihydroxyphenyl) sulfanyl]ethan-1-amonium chloride in pure water and in 1 M HCl. Potential sweep rate: 20 mV s^−1. Working electrode: glassy carbon; Counter electrode: Pt foil; Reference electrode: Ag wire.
FIGS. 6a and 6b compare the cyclic voltammetry curves of 0.1 M 2-[(2,5-dihydroxyphenyl) sulfanyl]ethan-1-amonium chloride in concentrated LiTFSI and BMImCl without and with the addition of 1 M HCl. Potential sweep rate: 20 mV s^−1. Working electrode: glassy carbon; Counter electrode: Pt foil; Reference electrode: Ag wire.
CV measurements were performed in a three-electrode cell consisting of a glassy carbon rod working electrode, a platinum foil counter electrode and a silver wire quasi-reference electrode. CV measurements of 2-methoxyhydroquinone in water (FIG. 2a) and different aqueous ionic liquids and salt (FIG. 2b) were performed.
For the CV measurement in water, KCl was added as supporting salt. […] The average redox potential in water is 0.27 V vs. Ag but with large peak separation of 0.64 V (FIG. 2a).

[3] abbreviates: 10 m BMImCl-H2O, aqueous with cosolvent or surfactant or cyclodextrin, 10 m BMImCl-H2O, a: without additive.
Setting [4] is: 10 m LiTFSI-H2O, aqueous with cosolvent or surfactant or cyclodextrin, 10 m LiTFSI-H2O, a: without additive.
Where [5] appears, read: 10 m LiTFSI-H2O, aqueous with cosolvent or surfactant or cyclodextrin, LiTFSI—H2O (10 m), neutral, no additive.
The mark [6] stands for this setting: 10 m TBACl-H2O, aqueous with cosolvent or surfactant or cyclodextrin, 10 m TBACl-H2O, a: without additive.
Setting [7] is: water, H2O, a: without additive.
Setting [8] is: 10 m BMImCl-H2O, aqueous with cosolvent or surfactant or cyclodextrin, BMImCl—H2O (10 m / concentrated), neutral, no additive.
Where [9] appears, read: 0.1 M in BMImCl—H2O, 20 mV s^−1.
[10] abbreviates: 0.1 M in LiTFSI—H2O, 20 mV s^−1.
Where [11] appears, read: 0.1 M in 10 m BMImCl—H2O, 50 mV s^−1.
The mark [12] stands for this setting: 0.1 M in 10 m LiTFSI—H2O, 50 mV s^−1.
The mark [13] stands for this setting: 0.1 M in 10 m TBACl—H2O, 50 mV s^−1.
The mark [14] stands for this setting: 0.1 M in water, KCl supporting salt, 50 mV s^−1.
Setting [15] is: BMImCl—H2O, acidic conditions (1 M HCl).
Where [16] appears, read: LiTFSI—H2O, acidic conditions (1 M HCl).
Setting [17] is: TBACl—H2O, acidic conditions (1 M HCl).
The mark [18] stands for this setting: water, acidic conditions (1 M HCl).

Converted amounts (≈) assume the structure as drawn.

With `COc1cc(O)cc(OC)c1O` [2,6-dimethoxyhydroquinone], the solubility in data set [1] (10 m BMImCl-H2O with 1 M HCl, aqueous with cosolvent or surfactant or cyclodextrin, 10 m BMImCl-H2O, b: with 1 M HCl) was below 100 mM; in data set [1] (setting [3]), below 100 mM; in data set [1] (10 m LiTFSI-H2O with 1 M HCl, aqueous with cosolvent or surfactant or cyclodextrin, 10 m LiTFSI-H2O, b: with 1 M HCl), 500 mM (≈ 85.1 mg/mL); in data set [1] (setting [4]), 700 mM (≈ 119 mg/mL); in data set [1] (setting [5]), 700 mM (≈ 119 mg/mL); in data set [1] (10 m TBACl-H2O with 1 M HCl, aqueous with cosolvent or surfactant or cyclodextrin, 10 m TBACl-H2O, b: with 1 M HCl), 100 mM (≈ 17 mg/mL). Moreover, the solubility is 200 mM (≈ 34 mg/mL) in data set [1] (setting [6]); 500 mM (≈ 85.1 mg/mL) in data set [1] (acidic LiTFSI-H2O, aqueous with cosolvent or surfactant or cyclodextrin, acidic LiTFSI—H2O); below 100 mM in data set [1] (water with 1 M HCl, aqueous buffer, H2O, b: with 1 M HCl); below 100 mM in data set [1] (setting [7]). Also, the “Solubility (in words)” value in data set [1] (BMImCl—H2O) was “limited”; in data set [1] (TBACl—H2O), “limited”; in data set [1] (water) it was “insoluble”.

As for `Cl.NCCSc1cc(O)ccc1O` [2-[(2,5-dihydroxyphenyl)sulfanyl]ethan-1-aminium chloride], the solubility in data set [1] (setting [8]) amounted to 1200 mM; in data set [1] (acidic BMImCl-H2O, aqueous with cosolvent or surfactant or cyclodextrin, acidic BMImCl—H2O), 900 mM; in data set [1] (pure water), 2000 mM. Besides, the “average oxidation and reduction potential” value in data set [2] (0.1 M in BMImCl—H2O with addition of HCl (1 M), 20 mV s^−1) was 0.61 V; in data set [2] (setting [9]) it was 0.50 V vs. Ag. Moreover, in data set [2] (setting [9]), the peak separation came out at 0.61 V. Further, in data set [2] (0.1 M in BMImCl—H2O, with vs. without HCl (1 M)), the “reduction of peak separation on addition of HCl” value is 0.07 V. In data set [2] (setting [10]), the oxidation peak stood at 0.70 V vs. Ag. The compound also came in with a reduction peak in data set [2] (setting [10]) of 0.08 V vs. Ag. Further, the redox reversibility result in data set [2] (0.1 M in pure water and in 1 M HCl, 20 mV s^−1) is recorded as “poor redox reversibility”. Further, in data set [2] (in aqueous ionic liquids or lithium salt), the stability and reversibility entry is “excellent stability and reversibility”. Also, the “chemical and electrochemical stability” value in data set [2] (in water) was “chemically and electrochemically instable”.

With `CC[N+](CC)(CC)Cc1ccc2c(c1)C(=O)c1ccccc1C2=O.[Br-]` [2-methanaminium-N,N,N-triethyl-9,10-anthraquinone bromide], the “Solubility (in words)” value in data set [1] (5 m LiTFSI—H2O) was “poor”; in data set [1] (15 m LiTFSI—H2O), “soluble”. Moreover, the solubility in data set [1] (setting [3]) was below 100 mM; in data set [1] (10 m LiTFSI with triethanolamine, aqueous with cosolvent or surfactant or cyclodextrin, 10 m LiTFSI with 0.3 g triethanolamine per milliliter), 300 mM; in data set [1] (setting [4]), 500 mM; in data set [1] (setting [5]) it was 500 mM; in data set [1] (10 m TBACl-H2O with triethanolamine, aqueous with cosolvent or surfactant or cyclodextrin, 10 m TBACl-H2O, c: with 0.3 g triethanolamine per mL solvent), below 100 mM; in data set [1] (setting [6]) it was below 100 mM. Also, the solubility is below 100 mM in data set [1] (supporting electrolyte, aqueous with cosolvent or surfactant or cyclodextrin, 10 m BMImCl-H2O, c: with 0.3 g triethanolamine per mL solvent); 300 mM in data set [1] (supporting electrolyte, aqueous with cosolvent or surfactant or cyclodextrin, 10 m LiTFSI-H2O, c: with 0.3 g triethanolamine per mL solvent); below 100 mM in data set [1] (supporting electrolyte, aqueous with cosolvent or surfactant or cyclodextrin, H2O, c: with 0.3 g triethanolamine per mL solvent); below 100 mM in data set [1] (setting [7]).

`COc1cc(O)ccc1O` [2-methoxyhydroquinone]: the solubility in data set [1] (setting [8]) came to 6000 mM (≈ 841 mg/mL); in data set [1] (setting [5]), 4200 mM (≈ 589 mg/mL); in data set [1] (pure water, water), 1800 mM (≈ 252 mg/mL). Besides, the average redox potential in data set [2] (setting [11]) is 0.51 V vs. Ag; in data set [2] (setting [12]) it was 0.38 V vs. Ag; in data set [2] (setting [13]), 0.54 V vs. Ag; in data set [2] (setting [14]) it was 0.27 V vs. Ag; in data set [2] (10 m BMImCl—H2O with H3PO4 from 1 M to 3 M), 0.50 V vs. Ag. Also, the peak separation in data set [2] (setting [11]) stood at 0.53 V; in data set [2] (setting [12]), 0.48 V; in data set [2] (setting [14]) it was 0.64 V; in data set [2] (10 m BMImCl—H2O with 1 M H3PO4), 0.42 V; in data set [2] (setting [15]), 0.30 V; in data set [2] (setting [16]) it was 0.38 V. The figures for the peak separation in data set [2] (setting [17]) and in data set [2] (setting [18]) were 0.54 V and 0.40 V, respectively. The “polarization (peak separation)” value in data set [2] (setting [13]) amounted to 0.87 V. The redox potential in data set [2] (setting [15]) is recorded as 0.58 V vs. Ag; in data set [2] (setting [16]), 0.55 V vs. Ag; in data set [2] (setting [17]) it was 0.58 V vs. Ag; in data set [2] (setting [18]), 0.35 V vs. Ag.

`COc1cc(C=O)ccc1O` [vanillin, Vanillin]: the solubility in data set [1] (setting [3]) is 4000 mM (≈ 609 mg/mL); in data set [1] (setting [8]), 4000 mM (≈ 609 mg/mL); in data set [1] (setting [4]), 4000 mM (≈ 609 mg/mL); in data set [1] (setting [5]), 4000 mM (≈ 609 mg/mL); in data set [1] (setting [6]), 4000 mM (≈ 609 mg/mL); in data set [1] (TBACl-H2O, aqueous with cosolvent or surfactant or cyclodextrin, TBACl—H2O), 4000 mM (≈ 609 mg/mL). In data set [1] (setting [7]), this compound showed a solubility below 100 mM. In addition, the “Solubility (in words)” value in data set [1] (water) is recorded as “slightly soluble”.
